Reference: publication PMC12567500, “Activity-Based Profiling of Papain-like Cysteine Proteases During Late-Stage Leaf Senescence in Barley” (Plants, 2025)

Legend:
[1] = test system: aleurain (a cysteine aminopeptidase); parameters: method as in PMID 12354950; details: cited from earlier work
[2] = molecular target: R-AMC cleaving aminopeptidase activity (Fr. No 26–27 of barley leaf extract); test: Inhibition of R-AMC cleaving aminopeptidase activity, pooled ion-exchange fractions Nos. 26–27; assay type: biochemical, barley (Hordeum vulgare L.); details: for IC50: substrate R-AMC 25 µM, Fr. No 26–27, senescing leaves six weeks after anthesis, pH 5.5, read-out: Effect/IC50; for Inhibition of R-AMC cleaving aminopeptidase activity (in words): substrate R-AMC, earlier eluting fractions
PLCPs from maize leaves = test system: PLCPs from maize leaves; parameters: method as in PMID 31114592; details: ion-exchange chromatography; cited from earlier work
[3] = test system: PLCPs (cathepsin B- and L-like activity, Fr. No 35–36 of barley leaf extract); test: Inhibition of Z-FR-AMC cleavage, pooled ion-exchange fractions Nos. 35–36; assay type: biochemical, barley (Hordeum vulgare L.); details: for IC50: substrate Z-FR-AMC 25 µM, Fr. No 35–36, senescing leaves six weeks after anthesis, pH 5.5, read-out: Effect/IC50
Method: (§1) Soluble proteins from barley leaves were extracted by homogenizing 10 g of leaf powder in 200 mL of ice-cold 50 mM Tris-HCl buffer (pH 7.4). Homogenates were filtered through one layer of Miracloth (Calbiochem, San Diego, CA, USA), centrifuged at 20,000× g for 20 min at 4 °C, and the supernatants were then filtered through a 0.45 μm filter (Avantor, Radnor, PA, USA). PLCPs were separated using anion-exchange chromatography on a DEAE-Sepharose CL-6B column (volume 6 mL) equilibrated with 0.05 M Tris-HCl buffer (pH 7.4). The column was washed with equilibration buffer, and bound material was eluted with a NaCl gradient (0.0–1.0 M). Collected fractions (1 mL each) were kept in an ice bath and used for measurements of peptidase activity and protein content. Fractions with active cysteine proteases were pooled. To reduce the NaCl concentration and exchange the buffer to 0.1 M Na-citrate (pH 5.5), three sequential filtration steps using 10 kDa ultrafiltration 15 mL units (Merck Millipore Ltd., Carrigtwohill, County Cork, Ireland) were utilized, and the samples were incubated with gentle shaking with 10 µM DCG-04 in the presence of 2 mM DTT for 3 h at 37 °C. […] The intensity of DCG-04-labeled barley cysteine proteases was determined in our previous experiments using streptavidin-horseradish peroxidase. After the incubation, proteins were rapidly precipitated using 80% acetone under inclusion of 100 mM NaCl.
(§2) Fluorogenic substrates Z-FR-AMC to determine cathepsin B- and L-like activity, and Z-RR-AMC to determine cathepsin B-like activity, were used. These substrates show fluorescence when AMC is released as a consequence of the hydrolysis of the Arg-AMC bond. The emitted fluorescence was detected with a SpectraMax M2 microplate reader (Molecular Devices, San Jose, CA, USA) with λex = 360 nm and λem = 460 nm. Before use, the substrates were dissolved in DMSO at 10 mM and stored at −20 °C. The measurements were made in 96-well black microplates (PerkinElmer Inc., Waltham, MA, USA), and each well contained a 100 μL final volume of 0.1 M Na-citrate buffer (pH 5.5) with DTT (2 mM), an aliquot of extract or chromatographic fraction, and fluorogenic substrate (25 μM). The reaction was initiated by the addition of the substrate. The final concentration of DMSO in microplate wells was 1% in all assays. The assays were conducted at room temperature, and relative fluorescence readings were recorded over a period of 10 min.
(§3) For the inhibition assays, an inhibitor (1 µL of stock solution of E-64 or bestatin in DMSO, or stock solution of 1,10-phenanthroline in ethanol) at different concentrations was added to the reaction mixture. […]

[4] = test system: PLCPs (cathepsin B-like activity, Fr. No 35–36 of barley leaf extract); test: Inhibition of Z-RR-AMC cleavage, pooled ion-exchange fractions Nos. 35–36; assay type: biochemical, barley (Hordeum vulgare L.); details: for IC50: substrate Z-RR-AMC 25 µM, Fr. No 35–36, senescing leaves six weeks after anthesis, pH 5.5, read-out: Effect/IC50
Method: as §1, §2, §3

[5] = test system: PLCPs (pooled fractions with active cysteine proteases); test: DCG-04 labeling of pooled active fractions, remaining PLCP activity checked with Z-FR-AMC and Z-RR-AMC; assay type: biochemical, barley (Hordeum vulgare L.); details: 10 µM DCG-04, 2 mM DTT, 3 h at 37 °C, 0.1 M Na-citrate pH 5.5
Method: as §1, with “After the incubation, proteins were rapidly precipitated using 80% acetone under inclusion of 100 mM NaCl.” left out

| IC50 [2] [µM] | IC50 [3] [µM] | IC50 [4] [µM] | Inhibition of R-AMC cleaving aminopeptidase activity (in words) [2] | SMILES | Inhibition of aleurain activity (in words) [1] | Sensitivity of the single Z-FR-AMC cleavage activity peak to inhibition (in words) (PLCPs from maize leaves) | Inhibition of the activity of the peak fractions (in words) ([3]; substrate Z-FR-AMC, peak fractions of DEAE-Sepharose) | Inhibition of the activity of the peak fractions (in words) ([4]; substrate Z-RR-AMC, peak fractions of DEAE-Sepharose) | Remaining PLCP activity after incubation with probe [5] |
| --- | --- | --- | --- | --- | --- | --- | --- | --- | --- |
| > 25 | 0.0153 ± 0.0041 | 0.0091 ± 0.0022 |  | CC(C)C[C@H](NC(=O)[C@H]1O[C@@H]1C(=O)O)C(=O)NCCCCN=C(N)N (relative stereo) [E-64, trans-epoxysuccinyl-L-leucylamido-(4-guanidino)butane] | inhibited | sensitive | completely inhibited | completely inhibited |  |
| 247 ± 38 | > 1000 | > 1000 | inhibited | CC(C)C[C@H](NC(=O)[C@@H](O)[C@H](N)Cc1ccccc1)C(=O)O [Bestatin, bestatin] |  |  |  |  |  |
| 68.5 ± 12.2 | > 5000 | > 5000 | inhibited | c1cnc2c(c1)ccc1cccnc12 [1,10-Phenanthroline, 1,10-phenanthroline] |  |  |  |  |  |
|  |  |  |  | CCOC(=O)[C@H]1O[C@@H]1C(=O)N[C@@H](CC(C)C)C(=O)N[C@@H](Cc1ccc(O)cc1)C(=O)NCCCCCC(=O)N[C@@H](CCCCNC(=O)CCCC[C@@H]1SC[C@@H]2NC(=O)N[C@@H]21)C(N)=O [DCG-04] |  |  |  |  | No remaining PLCP activity |
